Measurements as given in ChEMBL document CHEMBL4507293 (2021).

How the values were obtained:
[1] = system: Tyrosine-protein kinase ABL1 (Homo sapiens), P00519 [T315I]; conditions: Compound concentration 100.0 nM
[2] = system: Tyrosine-protein kinase ABL1 (Homo sapiens), P00519 [Y253F]; conditions: Compound concentration 100.0 nM
[3] = biological target: Aurora kinase A (Homo sapiens) (UniProt O14965); conditions: Compound concentration 100.0 nM
[4] = biological target: Tyrosine-protein kinase receptor UFO (Homo sapiens) (UniProt P30530); conditions: Compound concentration 100.0 nM
[5] = biological target: Calcium/calmodulin-dependent protein kinase type II subunit alpha (Homo sapiens) (UniProt Q9UQM7); conditions: Compound concentration 100.0 nM
[6] = biological target: Calcium/calmodulin-dependent protein kinase kinase 2 (Homo sapiens) (UniProt Q96RR4); conditions: Compound concentration 100.0 nM
[7] = biological target: Cyclin-dependent kinase 9 (Homo sapiens) (UniProt P50750); conditions: Compound concentration 100.0 nM
[8] = biological target: Serine/threonine-protein kinase DCLK2 (Homo sapiens) (UniProt Q8N568); conditions: Compound concentration 100.0 nM
[9] = system: Epidermal growth factor receptor (Homo sapiens), P00533 [T790M]; conditions: Compound concentration 100.0 nM
[10] = biological target: Ephrin type-A receptor 8 (Homo sapiens) (UniProt P29322); conditions: Compound concentration 100.0 nM
Ephrin type-A receptor 8 (Homo sapiens), sequence (P29322 whole entry): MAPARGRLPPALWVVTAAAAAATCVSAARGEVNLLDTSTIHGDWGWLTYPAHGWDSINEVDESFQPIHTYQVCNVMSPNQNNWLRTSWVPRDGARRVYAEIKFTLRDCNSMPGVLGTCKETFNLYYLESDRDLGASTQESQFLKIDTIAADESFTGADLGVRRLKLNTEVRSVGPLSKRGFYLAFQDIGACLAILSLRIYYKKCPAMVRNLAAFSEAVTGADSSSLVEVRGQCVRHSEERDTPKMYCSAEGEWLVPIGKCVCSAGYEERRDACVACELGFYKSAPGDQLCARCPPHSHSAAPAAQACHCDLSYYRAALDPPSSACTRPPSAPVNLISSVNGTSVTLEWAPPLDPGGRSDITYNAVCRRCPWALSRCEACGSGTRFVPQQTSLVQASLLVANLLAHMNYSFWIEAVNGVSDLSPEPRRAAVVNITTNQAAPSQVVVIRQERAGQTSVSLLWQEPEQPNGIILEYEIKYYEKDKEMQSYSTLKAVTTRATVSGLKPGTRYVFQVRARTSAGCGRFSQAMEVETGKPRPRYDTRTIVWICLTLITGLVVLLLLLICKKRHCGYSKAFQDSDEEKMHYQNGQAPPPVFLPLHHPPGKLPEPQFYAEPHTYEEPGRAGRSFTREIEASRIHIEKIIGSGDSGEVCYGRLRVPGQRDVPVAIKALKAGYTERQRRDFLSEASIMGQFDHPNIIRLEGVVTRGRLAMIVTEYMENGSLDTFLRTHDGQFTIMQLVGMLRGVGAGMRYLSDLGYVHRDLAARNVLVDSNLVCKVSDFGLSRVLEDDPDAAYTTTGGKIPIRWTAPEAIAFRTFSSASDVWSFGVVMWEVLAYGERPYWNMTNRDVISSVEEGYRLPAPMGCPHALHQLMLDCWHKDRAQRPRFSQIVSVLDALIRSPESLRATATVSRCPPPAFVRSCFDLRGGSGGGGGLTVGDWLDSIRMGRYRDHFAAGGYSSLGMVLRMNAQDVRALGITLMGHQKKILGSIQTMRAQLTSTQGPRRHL

[11] = biological target: Tyrosine-protein kinase Fer (Homo sapiens) (UniProt P16591); conditions: Compound concentration 100.0 nM
[12] = system: Fibroblast growth factor receptor 3 (Homo sapiens), P22607 [G697C]; conditions: Compound concentration 100.0 nM
[13] = biological target: Tyrosine-protein kinase Fyn (Homo sapiens) (UniProt P06241); conditions: Compound concentration 100.0 nM
[14] = biological target: Cyclin-G-associated kinase (Homo sapiens) (UniProt O14976); conditions: Compound concentration 100.0 nM
[15] = biological target: Tyrosine-protein kinase JAK2 (Homo sapiens) (UniProt O60674); conditions: Compound concentration 100.0 nM
Tyrosine-protein kinase JAK2 (Homo sapiens), sequence (O60674 whole entry): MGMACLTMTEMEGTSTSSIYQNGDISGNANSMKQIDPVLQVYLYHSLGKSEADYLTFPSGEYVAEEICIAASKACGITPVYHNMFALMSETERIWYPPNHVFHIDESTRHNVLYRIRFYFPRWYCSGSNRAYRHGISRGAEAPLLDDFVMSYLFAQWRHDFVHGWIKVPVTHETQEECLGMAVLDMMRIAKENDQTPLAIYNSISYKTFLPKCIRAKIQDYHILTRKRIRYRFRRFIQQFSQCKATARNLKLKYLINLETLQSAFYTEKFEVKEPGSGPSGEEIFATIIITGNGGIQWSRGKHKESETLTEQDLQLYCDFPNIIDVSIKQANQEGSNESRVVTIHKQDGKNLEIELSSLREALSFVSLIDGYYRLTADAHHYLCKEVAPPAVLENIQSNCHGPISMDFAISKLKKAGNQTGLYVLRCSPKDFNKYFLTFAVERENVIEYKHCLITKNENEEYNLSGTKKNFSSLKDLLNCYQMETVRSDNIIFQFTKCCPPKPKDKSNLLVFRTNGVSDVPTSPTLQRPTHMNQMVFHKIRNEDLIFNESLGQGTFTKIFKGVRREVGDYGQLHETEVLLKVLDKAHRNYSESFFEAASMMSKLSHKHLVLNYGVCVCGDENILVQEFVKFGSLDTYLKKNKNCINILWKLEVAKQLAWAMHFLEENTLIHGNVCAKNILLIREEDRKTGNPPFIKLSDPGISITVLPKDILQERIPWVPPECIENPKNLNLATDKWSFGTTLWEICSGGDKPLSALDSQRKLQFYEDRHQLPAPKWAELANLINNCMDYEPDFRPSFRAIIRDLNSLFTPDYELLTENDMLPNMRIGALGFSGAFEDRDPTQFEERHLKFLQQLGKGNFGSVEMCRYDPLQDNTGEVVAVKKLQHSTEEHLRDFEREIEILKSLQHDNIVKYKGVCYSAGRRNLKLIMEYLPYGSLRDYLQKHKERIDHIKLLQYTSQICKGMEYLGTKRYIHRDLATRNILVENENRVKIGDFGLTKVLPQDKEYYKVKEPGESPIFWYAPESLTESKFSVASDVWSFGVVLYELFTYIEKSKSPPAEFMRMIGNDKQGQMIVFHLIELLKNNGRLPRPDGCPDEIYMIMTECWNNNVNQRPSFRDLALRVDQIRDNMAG

[16] = biological target: Leukocyte tyrosine kinase receptor (Homo sapiens) (UniProt P29376); conditions: Compound concentration 100.0 nM
Leukocyte tyrosine kinase receptor (Homo sapiens), sequence (P29376 whole entry): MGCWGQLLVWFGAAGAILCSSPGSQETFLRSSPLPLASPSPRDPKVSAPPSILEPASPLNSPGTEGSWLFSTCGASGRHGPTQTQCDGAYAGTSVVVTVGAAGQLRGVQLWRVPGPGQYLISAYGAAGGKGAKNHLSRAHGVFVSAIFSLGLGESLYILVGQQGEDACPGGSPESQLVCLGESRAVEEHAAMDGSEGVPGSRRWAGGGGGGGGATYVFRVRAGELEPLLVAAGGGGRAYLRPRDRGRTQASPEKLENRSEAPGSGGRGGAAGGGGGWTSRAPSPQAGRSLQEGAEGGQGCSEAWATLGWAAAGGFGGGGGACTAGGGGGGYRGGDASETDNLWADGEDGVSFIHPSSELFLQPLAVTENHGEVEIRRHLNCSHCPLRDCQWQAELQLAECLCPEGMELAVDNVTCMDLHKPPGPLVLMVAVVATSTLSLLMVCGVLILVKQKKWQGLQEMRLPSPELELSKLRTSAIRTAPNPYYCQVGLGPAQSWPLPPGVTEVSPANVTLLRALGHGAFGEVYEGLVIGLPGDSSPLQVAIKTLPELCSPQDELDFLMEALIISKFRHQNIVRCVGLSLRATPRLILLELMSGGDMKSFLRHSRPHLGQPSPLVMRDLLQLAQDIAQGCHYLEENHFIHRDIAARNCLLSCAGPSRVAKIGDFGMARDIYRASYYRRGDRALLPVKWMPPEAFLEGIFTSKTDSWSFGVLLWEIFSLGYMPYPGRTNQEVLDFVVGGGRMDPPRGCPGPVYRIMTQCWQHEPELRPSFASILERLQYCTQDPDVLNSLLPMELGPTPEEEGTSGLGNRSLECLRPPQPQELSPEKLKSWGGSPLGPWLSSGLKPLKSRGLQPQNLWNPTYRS

[17] = biological target: Mitogen-activated protein kinase kinase kinase 13 (Homo sapiens) (UniProt O43283); conditions: Compound concentration 100.0 nM
[18] = biological target: Mitogen-activated protein kinase kinase kinase 1 (Homo sapiens) (UniProt Q13233); conditions: Compound concentration 100.0 nM
[19] = biological target: Serine/threonine-protein kinase MARK1 (Homo sapiens) (UniProt Q9P0L2); conditions: Compound concentration 100.0 nM
[20] = biological target: Serine/threonine-protein kinase MARK2 (Homo sapiens) (UniProt Q7KZI7); conditions: Compound concentration 100.0 nM
[21] = biological target: Microtubule-associated serine/threonine-protein kinase 1 (Homo sapiens) (UniProt Q9Y2H9); conditions: Compound concentration 100.0 nM
[22] = biological target: Mitogen-activated protein kinase kinase kinase 9 (Homo sapiens) (UniProt P80192); conditions: Compound concentration 100.0 nM
Mitogen-activated protein kinase kinase kinase 9 (Homo sapiens), sequence (P80192 whole entry, looked up): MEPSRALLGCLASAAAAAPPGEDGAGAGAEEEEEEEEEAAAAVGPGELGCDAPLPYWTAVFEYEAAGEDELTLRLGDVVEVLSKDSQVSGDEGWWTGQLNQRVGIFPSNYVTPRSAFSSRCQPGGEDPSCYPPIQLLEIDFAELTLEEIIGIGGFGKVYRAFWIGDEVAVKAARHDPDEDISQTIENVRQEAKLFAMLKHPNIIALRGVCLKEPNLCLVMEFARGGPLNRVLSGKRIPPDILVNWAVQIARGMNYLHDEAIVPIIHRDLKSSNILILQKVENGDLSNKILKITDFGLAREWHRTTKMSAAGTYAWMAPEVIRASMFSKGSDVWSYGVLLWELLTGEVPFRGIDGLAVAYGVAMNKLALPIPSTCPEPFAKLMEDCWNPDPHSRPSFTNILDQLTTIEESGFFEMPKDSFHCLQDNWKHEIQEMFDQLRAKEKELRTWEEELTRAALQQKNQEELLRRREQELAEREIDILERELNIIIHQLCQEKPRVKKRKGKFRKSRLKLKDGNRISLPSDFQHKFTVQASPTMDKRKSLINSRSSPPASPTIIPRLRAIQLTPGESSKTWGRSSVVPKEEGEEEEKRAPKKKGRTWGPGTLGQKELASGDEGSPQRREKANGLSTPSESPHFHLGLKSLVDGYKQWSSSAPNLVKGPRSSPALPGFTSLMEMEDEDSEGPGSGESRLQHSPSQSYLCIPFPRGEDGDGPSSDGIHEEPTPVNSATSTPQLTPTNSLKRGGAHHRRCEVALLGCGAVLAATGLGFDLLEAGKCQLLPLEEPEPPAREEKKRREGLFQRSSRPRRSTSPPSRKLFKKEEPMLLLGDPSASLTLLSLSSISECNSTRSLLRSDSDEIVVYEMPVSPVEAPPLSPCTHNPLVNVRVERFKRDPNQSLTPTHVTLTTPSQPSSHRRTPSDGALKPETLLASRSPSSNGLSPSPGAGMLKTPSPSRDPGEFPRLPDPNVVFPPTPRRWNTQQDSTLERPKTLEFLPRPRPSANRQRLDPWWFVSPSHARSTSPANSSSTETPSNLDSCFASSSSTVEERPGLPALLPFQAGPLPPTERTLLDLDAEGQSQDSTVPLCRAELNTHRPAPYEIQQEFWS

[23] = biological target: Serine/threonine-protein kinase Nek6 (Homo sapiens) (UniProt Q9HC98); conditions: Compound concentration 100.0 nM
[24] = biological target: Mitogen-activated protein kinase 14 (Homo sapiens) (UniProt Q16539); conditions: Compound concentration 100.0 nM
[25] = biological target: Phosphatidylinositol 4,5-bisphosphate 3-kinase catalytic subunit alpha isoform (Homo sapiens) (UniProt P42336); conditions: Compound concentration 100.0 nM
[26] = system: Phosphatidylinositol 4,5-bisphosphate 3-kinase catalytic subunit alpha isoform (Homo sapiens), P42336 [Q546K]; conditions: Compound concentration 100.0 nM
[27] = biological target: Receptor-interacting serine/threonine-protein kinase 4 (Homo sapiens) (UniProt P57078); conditions: Compound concentration 100.0 nM
[28] = biological target: Serine/threonine-protein kinase SBK1 (Homo sapiens) (UniProt Q52WX2); conditions: Compound concentration 100.0 nM
[29] = biological target: Serine/threonine-protein kinase 35 (Homo sapiens) (UniProt Q8TDR2); conditions: Compound concentration 100.0 nM
[30] = biological target: Serine/threonine-protein kinase TNNI3K (Homo sapiens) (UniProt Q59H18); conditions: Compound concentration 100.0 nM
[31] = biological target: Serine/threonine-protein kinase 32A (Homo sapiens) (UniProt Q8WU08); conditions: Compound concentration 100.0 nM
[32] = biological target: T1, 5-hydroxytryptamine receptor 1A (Homo sapiens) (UniProt P08908); conditions: Compound concentration 10.0 uM
T1 sequence (whole entry): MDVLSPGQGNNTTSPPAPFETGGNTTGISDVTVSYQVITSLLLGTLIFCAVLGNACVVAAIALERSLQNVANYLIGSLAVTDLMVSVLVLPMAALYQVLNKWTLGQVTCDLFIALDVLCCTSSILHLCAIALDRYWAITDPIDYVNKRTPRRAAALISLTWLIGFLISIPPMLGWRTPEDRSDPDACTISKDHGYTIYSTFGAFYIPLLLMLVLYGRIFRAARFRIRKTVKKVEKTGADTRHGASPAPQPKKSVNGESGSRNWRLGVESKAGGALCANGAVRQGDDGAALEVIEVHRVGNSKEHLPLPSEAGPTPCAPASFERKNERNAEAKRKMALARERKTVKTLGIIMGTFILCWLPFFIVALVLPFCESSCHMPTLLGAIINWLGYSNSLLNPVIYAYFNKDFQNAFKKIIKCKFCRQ

[33] = biological target: 5-hydroxytryptamine receptor 2B (Homo sapiens) (UniProt P41595); conditions: Compound concentration 10.0 uM
[34] = biological target: Histamine H2 receptor (Homo sapiens) (UniProt P25021); conditions: Compound concentration 10.0 uM
Histamine H2 receptor (Homo sapiens), sequence (P25021 whole entry): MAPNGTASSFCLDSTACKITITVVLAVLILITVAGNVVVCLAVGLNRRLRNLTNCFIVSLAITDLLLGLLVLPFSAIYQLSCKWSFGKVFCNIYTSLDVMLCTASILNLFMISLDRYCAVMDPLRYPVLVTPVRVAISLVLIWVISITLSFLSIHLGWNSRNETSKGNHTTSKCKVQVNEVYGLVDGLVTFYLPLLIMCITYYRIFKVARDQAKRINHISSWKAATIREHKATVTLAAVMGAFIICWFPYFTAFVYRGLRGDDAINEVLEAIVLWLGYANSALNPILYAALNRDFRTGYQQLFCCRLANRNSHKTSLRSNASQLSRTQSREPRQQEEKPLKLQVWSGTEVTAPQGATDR

Aurora kinase A (Homo sapiens), sequence (O14965 whole entry): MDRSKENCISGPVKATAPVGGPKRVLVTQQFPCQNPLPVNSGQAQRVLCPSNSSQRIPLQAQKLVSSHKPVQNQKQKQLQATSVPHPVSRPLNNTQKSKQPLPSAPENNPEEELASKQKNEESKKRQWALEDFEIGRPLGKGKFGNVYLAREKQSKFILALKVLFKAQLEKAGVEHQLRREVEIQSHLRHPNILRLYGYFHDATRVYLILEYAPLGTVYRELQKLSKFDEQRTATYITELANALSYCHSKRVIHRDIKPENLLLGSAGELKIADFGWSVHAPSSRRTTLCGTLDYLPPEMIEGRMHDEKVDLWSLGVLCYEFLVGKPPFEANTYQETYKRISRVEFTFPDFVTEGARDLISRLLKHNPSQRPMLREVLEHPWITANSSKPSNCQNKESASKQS

CC(C)CC(=O)N1CCc2nc(-c3ccc(Br)cc3)nc(N(C)Cc3ccccc3)c2C1 [THPP-1-NC]
inactive: residual activity [1] 100% | residual activity [2] 97% | residual activity [3] 72% | residual activity [4] 63% | residual activity [5] 100% | residual activity [6] 100% | residual activity [7] 100% | residual activity [8] 100% | residual activity [9] 74% | residual activity [10] 100% | residual activity [11] 100% | residual activity [12] 100% | residual activity [13] 100% | residual activity [14] 100% | residual activity [15] 100% | residual activity [16] 91% | residual activity [17] 66% | residual activity [18] 100% | residual activity [19] 92% | residual activity [20] 100% | residual activity [21] 100% | residual activity [22] 91% | residual activity [23] 100% | residual activity [24] 100% | residual activity [25] 77% | residual activity [26] 97% | residual activity [27] 100% | residual activity [28] 100% | residual activity [29] 96% | residual activity [30] 100% | residual activity [31] 94% | inhibition [32] -0.56% | inhibition [33] 7.85% | inhibition [34] 3.39%

COCCOc1nc(-c2ccc(Cl)nc2)nc2c1CN(C(=O)c1ncn3ccccc13)CC2 [THPP-1]
inactive: residual activity [1] 75% | residual activity [2] 93% | residual activity [3] 81% | residual activity [4] 90% | residual activity [5] 100% | residual activity [6] 100% | residual activity [7] 100% | residual activity [8] 100% | residual activity [9] 61% | residual activity [10] 100% | residual activity [11] 100% | residual activity [12] 100% | residual activity [13] 100% | residual activity [14] 100% | residual activity [15] 100% | residual activity [16] 100% | residual activity [17] 87% | residual activity [18] 100% | residual activity [19] 100% | residual activity [20] 100% | residual activity [21] 100% | residual activity [22] 100% | residual activity [23] 100% | residual activity [24] 100% | residual activity [25] 85% | residual activity [26] 87% | residual activity [27] 100% | residual activity [28] 100% | residual activity [29] 100% | residual activity [30] 100% | residual activity [31] 83% | inhibition [32] -0.41% | inhibition [33] 3.25% | inhibition [34] -0.24%
